The values that follow come from PubChem BioAssay (NCI).

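Step 1: Grow cells in 96-well plates. Step 2: Expose to compound for 48 hours at 5 concentrations. Step 3: Interpolate endpoints linearly; if unreached, use highest concentration. GI50 is the concentration that inhibits growth by half. At the TGI there is no net growth.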

Among the test systems are A549 NSCLC; COLO 205 colon; EKVX NSCLC; HT29 colon; KM12 colon; NCI-H23 lung; SK-MEL-2 melanoma; SK-MEL-5 melanoma; SW-620 colon; U251 CNS.
Common to all, as to assay: DTP human tumour cell line panel, 48 h

Consider `NS(=O)(=O)c1ccc(C(=O)O)cc1`, for which the TGI in the assay with A549 NSCLC, with COLO 205 colon, with EKVX NSCLC, in the assay with HT29 colon, in the assay on KM12 colon and in the assay with NCI-H23 lung was above 100 µM each time. For the same compound, the TGI in the assay with SK-MEL-2 melanoma, in the assay with SK-MEL-5 melanoma, with SW-620 colon and with U251 CNS was above 100 µM in each case.
Take `ClCCN(CC#CCCCC#CCN(CCCl)CCCl)CCCl`: the TGI in the assay on A549 NSCLC worked out at 31.8 µM; in the assay with COLO 205 colon, 30.3 µM; in the assay on EKVX NSCLC, 44.8 µM; with HT29 colon, 24.8 µM; in the assay with KM12 colon, 44.4 µM; with NCI-H23 lung it was 29.3 µM. Besides, the TGI in the assay on SK-MEL-2 melanoma is 23.4 µM; in the assay on SK-MEL-5 melanoma, 24.3 µM; in the assay on SW-620 colon it was 23.3 µM; in the assay with U251 CNS it was 23.8 µM.
In the case of `CC1(C)CCc2cc3c(cc2O1)OC(C)(C)CC3=O`, the TGI in the assay with A549 NSCLC, in the assay on COLO 205 colon, in the assay on EKVX NSCLC, in the assay on HT29 colon, with KM12 colon and with NCI-H23 lung was above 100 µM in each case. Further, the TGI was above 100 µM in the assay with SK-MEL-2 melanoma, 52.2 µM in the assay on SK-MEL-5 melanoma, above 100 µM in the assay on SW-620 colon and above 100 µM with U251 CNS.
Turning to `Cc1c2ccccc2c(CSC(=N)N)c2ccccc12`, the TGI in the assay on A549 NSCLC turned out to be 1.62 µM; in the assay on COLO 205 colon, 0.37 µM; in the assay on EKVX NSCLC, 1.33 µM; in the assay with HT29 colon, 1.05 µM; in the assay on KM12 colon, 0.545 µM; with NCI-H23 lung, 0.272 µM. The TGI in the assay on SK-MEL-2 melanoma was found to be 0.375 µM; in the assay with SK-MEL-5 melanoma, 0.331 µM; in the assay with SW-620 colon, 0.947 µM; in the assay on U251 CNS, 0.818 µM.
For `N=C(N)SC(c1ccccc1)c1ccccc1`, the TGI in the assay on A549 NSCLC is 95.2 µM; with COLO 205 colon it was 47.1 µM; in the assay with EKVX NSCLC, 33.6 µM; in the assay on HT29 colon, 34.4 µM; with KM12 colon it was 32.9 µM; in the assay on NCI-H23 lung, 28.3 µM. Moreover, the TGI turned out to be 32 µM with SK-MEL-2 melanoma, 32.2 µM in the assay with SK-MEL-5 melanoma, 44.6 µM with SW-620 colon and 29.4 µM with U251 CNS.
For the compound `CC(C)(c1ccccc1)c1ccc(Oc2ccc3c(c2)-c2nc-3nc3[nH]c(nc4nc(nc5[nH]c(n2)c2ccc(Oc6ccc(C(C)(C)c7ccccc7)cc6)cc52)-c2cc(Oc5ccc(C(C)(C)c6ccccc6)cc5)ccc2-4)c2ccc(Oc4ccc(C(C)(C)c5ccccc5)cc4)cc32)cc1`, the TGI with A549 NSCLC, in the assay on COLO 205 colon, in the assay with EKVX NSCLC, in the assay on HT29 colon, with KM12 colon and in the assay with NCI-H23 lung was above 100 µM in each case. For the same compound, the TGI in the assay on SK-MEL-2 melanoma, in the assay with SK-MEL-5 melanoma, with SW-620 colon and in the assay on U251 CNS was above 100 µM each time.
Regarding `Cn1c(=O)c2c(nc(N3CCOCC3)n2CCCNCC(O)c2ccc(O)c(O)c2)n(C)c1=O` (stereo not given), the TGI with A549 NSCLC, in the assay on COLO 205 colon, in the assay with EKVX NSCLC, with HT29 colon, in the assay with KM12 colon and in the assay on NCI-H23 lung was above 100 µM in each case. Moreover, the TGI with SK-MEL-2 melanoma, in the assay on SK-MEL-5 melanoma, in the assay with SW-620 colon and in the assay with U251 CNS was above 100 µM throughout.
`CC(C)C(C)C(O)C(O)C(C)C1CCC2C3COC(=O)C4CC(O)C(O)CC4(C)C3CCC12C` (stereo not given): the TGI in the assay with A549 NSCLC, with COLO 205 colon, with EKVX NSCLC, with HT29 colon, in the assay with KM12 colon and with NCI-H23 lung was above 100 µM throughout. For the same compound, the TGI in the assay with SK-MEL-2 melanoma, with SK-MEL-5 melanoma, in the assay on SW-620 colon and in the assay with U251 CNS was above 100 µM in each case.
Regarding `CC1OC1P(=O)(O)O` (stereo not given), the TGI with A549 NSCLC, in the assay with COLO 205 colon, in the assay on EKVX NSCLC, with HT29 colon, with KM12 colon and with NCI-H23 lung was above 100 µM throughout. The TGI in the assay with SK-MEL-2 melanoma, in the assay on SK-MEL-5 melanoma, with SW-620 colon and in the assay with U251 CNS was above 100 µM each time.
Consider `Cn1ncc2c(=O)[nH]c(-c3ccccc3)nc21`, for which the TGI in the assay on A549 NSCLC, in the assay with COLO 205 colon, with EKVX NSCLC, with HT29 colon, in the assay with KM12 colon and in the assay with NCI-H23 lung was above 100 µM throughout. The TGI in the assay on SK-MEL-2 melanoma, in the assay with SK-MEL-5 melanoma, in the assay on SW-620 colon and in the assay with U251 CNS was above 100 µM each time.
Take `Cc1cc(N2CCCCC2)nc(NCc2cc(Nc3ccnc4cc(Cl)ccc34)ccc2F)n1`: the GI50 in the assay on A549 NSCLC is 1.7 µM; in the assay on COLO 205 colon, 0.329 µM; in the assay with EKVX NSCLC, 1.62 µM; with HT29 colon it was 0.795 µM; in the assay on KM12 colon, 1.69 µM; in the assay with NCI-H23 lung, 1.83 µM. The GI50 was 1.89 µM with SK-MEL-2 melanoma, 1.05 µM with SK-MEL-5 melanoma, 1.45 µM in the assay with SW-620 colon and 1.71 µM in the assay with U251 CNS. For the same compound, the TGI is 3.22 µM in the assay on A549 NSCLC; 1.4 µM with COLO 205 colon; 3.77 µM in the assay on EKVX NSCLC; 2.21 µM with HT29 colon; 3.29 µM in the assay with KM12 colon; 4.92 µM in the assay with NCI-H23 lung. Moreover, the TGI in the assay with SK-MEL-2 melanoma was 3.59 µM; with SK-MEL-5 melanoma, 2.25 µM; with SW-620 colon, 3.59 µM; in the assay with U251 CNS it was 3.15 µM.
